Source: paper PMC7766220, “Design, Synthesis and Comprehensive Investigations of Pyrrolo[3,4-d]pyridazinone-Based 1,3,4-Oxadiazole as New Class of Selective COX-2 Inhibitors” (International Journal of Molecular Sciences, 2020)

Legend:
[1] = target: T1, COX-2 (Homo sapiens, UniProt P35354); assay: colorimetric COX peroxidase assay, […] nm (Cayman […]); format: biochemical; conditions: read-out: Cyclooxygenase Inhibition Assay IC50 [μM] / COX-2
T1 construct: gene PTGS2; docking used 4M11
T1 sequence (P35354 18-604): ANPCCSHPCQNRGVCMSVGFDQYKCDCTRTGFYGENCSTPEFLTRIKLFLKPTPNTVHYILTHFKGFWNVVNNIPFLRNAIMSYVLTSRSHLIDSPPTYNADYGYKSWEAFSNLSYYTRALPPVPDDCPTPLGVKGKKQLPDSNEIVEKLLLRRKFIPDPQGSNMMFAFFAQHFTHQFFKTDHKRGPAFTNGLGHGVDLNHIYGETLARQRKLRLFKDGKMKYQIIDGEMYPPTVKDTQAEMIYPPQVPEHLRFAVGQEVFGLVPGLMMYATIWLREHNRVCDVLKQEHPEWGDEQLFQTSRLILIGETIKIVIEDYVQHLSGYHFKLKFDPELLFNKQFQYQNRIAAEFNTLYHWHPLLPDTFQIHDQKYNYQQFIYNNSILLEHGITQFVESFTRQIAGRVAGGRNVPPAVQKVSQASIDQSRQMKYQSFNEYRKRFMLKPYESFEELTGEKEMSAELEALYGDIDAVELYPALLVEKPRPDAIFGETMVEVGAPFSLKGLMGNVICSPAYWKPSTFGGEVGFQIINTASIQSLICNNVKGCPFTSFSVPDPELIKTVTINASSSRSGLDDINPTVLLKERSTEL

[2] = target: T2, Bovine Serum Albumin (BSA) (Bos taurus, UniProt P02769); assay: intrinsic fluorescence quenching, excitation […] nm; format: binding; conditions: 294 K, pH 7.4, no site marker, double-log
T2 construct: gene ALB
T2 sequence (P02769 25-607): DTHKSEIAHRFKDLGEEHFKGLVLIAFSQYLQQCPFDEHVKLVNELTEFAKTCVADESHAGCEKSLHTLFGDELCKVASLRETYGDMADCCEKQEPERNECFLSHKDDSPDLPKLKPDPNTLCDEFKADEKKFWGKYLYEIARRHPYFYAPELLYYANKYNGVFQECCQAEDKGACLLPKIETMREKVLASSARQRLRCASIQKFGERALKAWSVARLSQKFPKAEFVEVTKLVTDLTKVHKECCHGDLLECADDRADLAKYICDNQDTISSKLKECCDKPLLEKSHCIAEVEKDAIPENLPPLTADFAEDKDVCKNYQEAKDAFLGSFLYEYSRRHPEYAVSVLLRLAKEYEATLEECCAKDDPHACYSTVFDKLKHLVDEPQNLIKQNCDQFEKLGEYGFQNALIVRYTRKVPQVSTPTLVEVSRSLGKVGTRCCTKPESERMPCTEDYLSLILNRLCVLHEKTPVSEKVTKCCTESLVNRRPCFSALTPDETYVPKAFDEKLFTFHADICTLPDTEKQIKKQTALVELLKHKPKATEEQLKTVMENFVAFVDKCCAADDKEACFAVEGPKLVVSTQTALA

[3] = unreliable (Table 5 rows of 5a and 5b are identical, likely a copying error)

IC50 [1] [µM]	Binding / Kb × 10^4 [dm^3.mol^-1] [2, 3]	Binding / Kb × 10^4 [dm^3.mol^-1] [2]	SMILES
659	12.30 × 10^4 dm^3·mol^−1	–	Cc1c2c(OCc3nnc(SCC(=O)N4CCN(c5ccccc5)CC4)o3)nn(C)c(=O)c2c(C)n1-c1ccccc1 [5a, 3,5,7-trimethyl-1-[[2-[2-oxo-2-(4-phenylpiperazin-1-yl)ethyl]sulfanyl-1,3,4-oxadiazol-5-yl]methoxy]-6-phenyl-pyrrolo[3,4-d]pyridazin-4-one]
257	12.30 × 10^4 dm^3·mol^−1	–	CCCCn1c(C)c2c(OCc3nnc(SCC(=O)N4CCN(c5ccccc5)CC4)o3)nn(C)c(=O)c2c1C [5b, 6-butyl-3,5,7-trimethyl-1-[[2-[2-oxo-2-(4-phenylpiperazin-1-yl)ethyl]sulfanyl-1,3,4-oxadiazol-5-yl]methoxy]pyrrolo[3,4-d]pyridazin-4-one]
160	–	7.24 × 10^4 dm^3·mol^−1	Cc1c2c(OCc3nnc(SCC(=O)N4CCN(c5ncccn5)CC4)o3)nn(C)c(=O)c2c(C)n1-c1ccccc1 [6a, 3,5,7-trimethyl-1-[[2-[2-oxo-2-(4-pyrimidin-2-ylpiperazin-1-yl)ethyl]sulfanyl-1,3,4-oxadiazol-5-yl]methoxy]-6-phenyl-pyrrolo[3,4-d]pyridazin-4-one]
371	–	8.51 × 10^4 dm^3·mol^−1	CCCCn1c(C)c2c(OCc3nnc(SCC(=O)N4CCN(c5ncccn5)CC4)o3)nn(C)c(=O)c2c1C [6b, 6-butyl-3,5,7-trimethyl-1-[[2-[2-oxo-2-(4-pyrimidin-2-ylpiperazin-1-yl)ethyl]sulfanyl-1,3,4-oxadiazol-5-yl]methoxy]pyrrolo[3,4-d]pyridazin-4-one]
